Consider one molecule from patent publication US12264163B2, “Compounds and methods for treating fibrotic pathologies” (Mayo Foundation for Medical Education and Research, priority 2019, dated 2025).

The test system of experiment [1] is bleomycin-induced pulmonary fibrosis. Description: Bleomycin mouse model of pulmonary fibrosis. To be noted: bleomycin mice. The format is in vivo. The method, then: Bleomycin Mouse Study: In the initial in vivo siRNA study (FIGS. 22 and 23A-23C), adult male age-matched C57BL/6N mice at 6-8 weeks of age were purchased from the National Cancer Institute (NCI)-Frederick Mouse Repository (Frederick, MD, USA). All experiments were performed in accordance with National Institute of Health guidelines and protocols approved by the Massachusetts General Hospital Subcommittee on Research Animal Care, and maintained all mice in a specific pathogen-free (SPF) environment certified by the American Association for Accreditation of Laboratory Animal Care (AAALAC). 6-8 weeks old mice were anesthetized with ketamine and xylazine before exposure of the trachea. Lung fibrosis was induced by intratracheal injection of bleomycin (50 μl at 1.2 U/kg) or phosphate buffered saline (PBS; as control) on day 0. After 14 days Small interfering RNA (siRNA) duplexes targeting mouse Yap (L-046247-01-0005) or Taz (L-058248-01-0005) mRNA (Dharmacon) or nontargeting control siRNA were administered in vivo by intratracheal instillation at a single dose of 25 μg (each siRNA) per mouse. On day 21 Mice were sacrificed and lungs harvested for collagen determination and biochemical analyses. To obtain BAL samples for total protein concentration determination, lungs were lavaged with six 0.5-mL aliquots of PBS. BAL samples were centrifuged at 3,000 g for 20 min at 4° C. and transferred the supernatants to siliconized low-binding Eppendorf tubes (PGC Scientifics) for subsequent analysis. Total protein concentration of the BAL fluid was determined by BCA Protein Assay Kit (Pierce). In the dihydrexidine treatment studies (FIG. 17-21), 8 week old female C57/BL6 mice were purchased from Charles River Laboratories. Mouse lung fibrosis was induced with bleomycin (BLEO; Fresenius Kabi) delivered intratracheally (3 U/kg) to the lungs using MicroSprayer® Aerosolizer (Penn-Century). The Sham mice received sterile 0.9% saline instead using identical methods. Mice were weighed every 24 hrs, and both groups were then randomized at day 10 into DHX and Control treatment groups, matching for the degree of weight change. DHX (5 mg/kg) was administered everyday intranasally (i.n.) dissolved in surfactant (infasurf) which has previously shown to aid in spreading to pulmonary aveoli for 14 days. The control groups of mice received the equivalent vehicle dose of surfactant. Following the final DHX treatment, mice were sacrificed and the right lungs were inflated with 4% paraformaldehyde (PFA) and further incubated in 4% PFA for 24 hours prior processing for paraffin embedding. The left lobe of the lung was snap frozen in liquid nitrogen for RNA isolation and hydroxyproline assay. Experimental procedures were approved by the Mayo Clinic Institutional Animal Care and Use Committee and the animals were handled in accordance with their guidelines.
Histological Scoring: Five μm thick sections were cut from Paraffin embedded lung tissues, and the sections were stained either with hematoxylin and eosin (H&E) or with Masson's Trichrome stain kit (Abcam). All H&E-stained slides and trichrome-stained slides were reviewed in a blinded fashion by a thoracic pathologist. The severity of interstitial and peribronchiolar lung immature and mature fibrosis was estimated on a numerical scale according to Ashcroft et al. For scoring purposes, all H&E stained slides were systematically scanned at 100× magnification and successive 100× fields were scored. Scoring was based on the following scale: 0 (no fibrosis), 1 (minimal interstitial and/or peribronchiolar thickening due to fibrosis), 3 (moderate thickening without obvious architectural distortion), 5 (increased fibrosis with formation of fibrous bands and/or small masses), 7 (severe architectural distortion with large areas of fibrosis and areas of honeycomb changes), and 8 (total fibrous obliteration of the field). The predominant score for each field was recorded. The mean of all scores was calculated for each case. […]

For experiment [2], the system named is Collagen I and Fibronectin. Nature of the experiment: Immuno-ECM: TGFβ-induced collagen I and fibronectin accumulation. To be noted: IPF patient-derived fibroblasts, TGFβ 48 hours then DHX 24 hours. The format is cell-based, human. How it is done:
IPF patient-derived fibroblasts grown at confluence were pre-stimulated with 2 ng/mL TGFβ for 48 hours and then treated with DHX (10 μM)+2 ng/mL TGFβ for an additional 24 hours prior to fixation. Cell derived matrix is measured using antibodies for Collagen I and Fibronectin. […] Representative traction maps are shown from cells plated onto 6.4 kPa matrices treated with the indicated concentration of DHX. RMS tractions were determined in two independent experiments; box and whisker plots show min to max, quartile, and mean from one representative experiment (****p<0.0001, *p<0.05 vs. 0.1% DMSO vehicle control).
Immuno-ECM Adapting from previously published methods, IPF patient-derived fibroblasts were plated to confluence in clear-bottom 96-well plates. After cells attached, the medium was swapped for EMEM containing 0.10% FBS±2 ng/mL TGF-β. After 48 hours the indicated concentration of DHX or DMSO control was added to each well and incubated for 24 hours. WST-1 viability reagent was added to each well (Sigma-Aldrich) and measured on a Flexstation 3 (Molecular Devices) plate reader. […] Plates were imaged via a Li-Cor OdysseyXL system with quantification performed via densitometry. Data are expressed as IR intensity relative to WST-1 signal absorbance in order to account for any potential compound toxicity.

The test system of experiment [3] is lung fibroblasts. Description: Fibroblast proliferation (counting DAPI nuclei). The format is cell-based, human. How it is done:
IPF fibroblast and Normal lung fibroblast co-culture proliferation. Cell are prelabelled with fluorescent dyes (red and green) and then cocultured at a ratio of about 1:1 in 96 well plates. Cell counts are determined every 24 hours and plotted as a ratio of IPF/HLF cells. In the control wells the IPF cells outgrow and take over the well. N=2.
Proliferation of lung fibroblasts (IMR-90 cells) measured for 4 days in the presence of GPCR agonists ET-1 (100 nM) and LPA (10 μM)+/−10 μM DHX. Cells were fixed and counted with DAPI at the end of each day. N=3 technical triplicates.
Adult lung fibroblasts plated into 96-well plates, stimulated with 2 ng/mL TGFβ and compounds at the indicated concentration. Proliferation determined by fixing and counting DAPI nuclei using a Cytation 5. N=2.
Fibroblasts were stimulated with 2 ng/mL TGFβ and treated with compound 1 (MS-9) at the indicated concentration (0.1 μM, 1 μM, and 10 μM). Proliferation determined by fixing and counting DAPI nuclei using a Cytation.

With `Oc1cc2c(cc1O)[C@H]1c3ccccc3CN[C@@H]1CC2` (racemic) [Dihydrexidine], in experiment [1] (DHX 5 mg/kg i.n. Day 10-24), the “lung remodeling by histology (Ashcroft, blinded pathologist)” value is “nearly completely protected from lung remodeling”; the “lung transcript levels of Acta2, Ctgf, Fn1, Col1a1, Col1a2, Yap and Taz” value is listed as “significantly attenuated”; the “staining for YAP and TAZ in the lungs” value is “attenuated”; the “total collagen in the lungs (hydroxyproline)” value was “nearly identical to sham treated mice”. Besides, the weight change entry in experiment [1] (DHX 5 mg/kg once daily i.n. from Day 10, vs Bleo control) is “lost significantly less weight”. In experiment [1] (two doses of DHX on day 10, lungs collected day 11), the “expression of YAP/TAZ target genes in flow-sorted lung cells” value is given as “selectively blocks expression of YAP/TAZ target genes in lung fibroblasts”. In experiment [2], the “TGFβ-stimulated accumulation of collagen I and fibronectin” value was “dose-dependently reversed”. Also, the “proliferation of lung fibroblasts” value in experiment [3] (4 days, ET-1, LPA, TGFβ or CTGF +/− 10 μM DHX) was “blocks proliferation”. The “IPF fibroblast and normal lung fibroblast co-culture proliferation” value in experiment [3] (co-culture about 1:1, ratio of IPF/HLF cells every 24 hours) is recorded as “selectively slows proliferation in IPF fibroblasts”.
